In general, IC50 refers to the point on the concentration scale where inhibition reaches its midpoint.

Consider five molecules from publication PMC8690933, “Evans blue-modified radiolabeled fibroblast activation protein inhibitor as long-acting cancer therapeutics” (Theranostics, 2022).

One data set concerns the target T1, FAP (Homo sapiens, UniProt Q12884).
T1 construct: endogenous in cells; host or cells: U87MG cells
T1 sequence (Q12884 1-760): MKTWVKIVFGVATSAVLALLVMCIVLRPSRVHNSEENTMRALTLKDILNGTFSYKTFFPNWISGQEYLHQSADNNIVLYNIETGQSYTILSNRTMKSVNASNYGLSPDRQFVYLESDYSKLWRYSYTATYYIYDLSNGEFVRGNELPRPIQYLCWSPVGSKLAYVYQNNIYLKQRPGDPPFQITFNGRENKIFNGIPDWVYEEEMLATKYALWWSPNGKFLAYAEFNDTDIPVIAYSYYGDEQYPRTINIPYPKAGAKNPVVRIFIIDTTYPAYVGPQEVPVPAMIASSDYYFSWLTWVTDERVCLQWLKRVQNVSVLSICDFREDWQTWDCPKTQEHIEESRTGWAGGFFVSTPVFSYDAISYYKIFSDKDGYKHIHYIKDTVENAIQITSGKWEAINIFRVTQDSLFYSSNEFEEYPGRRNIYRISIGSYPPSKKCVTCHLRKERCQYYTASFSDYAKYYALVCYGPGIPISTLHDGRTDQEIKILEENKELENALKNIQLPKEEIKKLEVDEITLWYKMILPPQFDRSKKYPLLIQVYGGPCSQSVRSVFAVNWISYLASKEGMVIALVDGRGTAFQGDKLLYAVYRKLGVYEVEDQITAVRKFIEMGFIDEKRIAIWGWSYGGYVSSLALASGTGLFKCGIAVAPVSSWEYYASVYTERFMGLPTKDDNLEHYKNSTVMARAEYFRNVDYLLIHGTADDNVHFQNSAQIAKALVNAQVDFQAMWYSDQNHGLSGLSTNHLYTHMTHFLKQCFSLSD
Put plainly: Competition assay against ^68Ga-FAPI-02 in U87MG cells. The following applies: unlabeled ligand competing with ^68Ga-FAPI-02, 1 h, read-out: IC50 (binding affinity to FAP in vitro). The procedure: (§1) U87MG cells were cultivated in Dulbecco modified Eagle medium (DMEM) containing 10% fetal calf serum (FCS) at 37 ℃ in 5% carbon dioxide (CO2). For cell uptake experiment, U87MG cells were seeded in 24-well plates (2 × 10^5/well) overnight. The cells were incubated with 37 kBq of ^177Lu-EB-FAPI series compounds in 0.5 mL of medium for 0.5, 1, 2, 4, 8 and 24 h at 37 °C. In the blocking group, FAPI-02 (10 μg/well) were added as inhibitors of the labeled precursors. For competition assays, U87MG cells were incubated simultaneously with different concentrations (10^-5-10^-11 M) of unlabeled FAPI-02 or EB-FAPI-B1 and ^68Ga-FAPI-02 in 0.4 mL of fresh medium for 1 h. At the corresponding time points, the medium was removed and the cells were washed twice with cold PBS (pH 7.4) and subsequently lysed with 1 mL of NaOH (0.1 M). Cell lysates was collected and the radioactivity was determined using a γ-counter. The cell uptake experiment was repeated four times for each time point and the competition assays were repeated three times at different concentrations.

Data set [1] concerns U87MG tumor. Put plainly: Small animal PET imaging in U87MG tumor-bearing mice. The format is in vivo. The following applies: 1 h p.i. The procedure: All animal studies were approved by the Animal Care and Use Committee of Xiamen University and carried out in compliance with the national laws related to the conduct of animal experimentation. 6-week-old female BALB/c nude mice from Beijing Vital River Laboratory Animal Technology Co., Ltd. were used in this study. The right upper limbs of BALB/c nude mice were subcutaneously inoculated with the suspension of U87MG cells (5 × 10^6 cells in 100 μL of PBS). […] PET scans were performed by using Inveon small-animal PET scanner (Siemens Preclinical Solution). […] At 1 h p.i., the mice were anaesthetized and placed on the bed for PET imaging. […] PET images were reconstructed with attenuation correction and analyzed through drawing regions of interest (ROIs).

A further data set has as its system U87MG cells. The experiment in a line: Cell uptake and blocking assay. The data set is classed as cell-based. The procedure:
as §1

Data set [2] in a line: Safety evaluation in the therapy study (body weight, H&E staining of major organs). The data set is classed as in vivo, BALB/c nude mice. The procedure: (§2) Two weeks after inoculation of U87MG tumor cells, the average tumor volume reached about 100 mm^3 in BALB/c nude mice. The U87MG tumor-bearing mice were randomly divided into 4 groups (n = 8/group), and subsequently treated with saline, 30 MBq ^177Lu-EB-FAPI-B1, 18.5 MBq ^177Lu-EB-FAPI-B1, 7.4 MBq ^177Lu-EB-FAPI-B1, respectively. Tumor volumes and body weights of all mice were monitored every two days. Individual tumor size was calculated with the formula: length × width^2/2. The mice were euthanized when the tumor volume exceeded 1500 mm^3. Histopathologic staining was performed with an anti-human FAP mAb (ab207178, Abcam). Hematoxylin and eosin (H&E) staining and terminal deoxynucleotidyl transferase-mediated dUTP-biotin nick-end labeling (TUNEL) analysis were carried out using a commercially available kit (Beyotime).

The test system of data set [3] is U87MG tumor. Put plainly: Small animal SPECT/CT imaging in U87MG tumor-bearing mice. The format is in vivo, BALB/c nude mice. The procedure:
(§3) All animal studies were approved by the Animal Care and Use Committee of Xiamen University and carried out in compliance with the national laws related to the conduct of animal experimentation. 6-week-old female BALB/c nude mice from Beijing Vital River Laboratory Animal Technology Co., Ltd. were used in this study. The right upper limbs of BALB/c nude mice were subcutaneously inoculated with the suspension of U87MG cells (5 × 10^6 cells in 100 μL of PBS). The mice underwent radioligand therapy experiments when the tumor volume reached about 100 mm^3 and small animal SPECT imaging studies when the tumor volume reached about 500 mm^3.
SPECT/CT imaging studies were performed using a nanoSPECT/CT preclinical scanner (Mediso, Hungary). About 37 MBq of radiotracers were injected intravenously into female ICR mice and U87MG tumor-bearing mice, whole body SPECT images were acquired at 1, 4, 24, 48, 72 and 96 h p.i. The acquisition parameters were as follows: 56.1, 112.9 and 208.4 keV energy peaks for ^177Lu, window width of 20%, matrix of 256 × 256, medium zoom, and 48 frames. Mice were anaesthetized using 1.5% isoflurane to maintain spontaneous breathing during imaging.

Data set [4] in a line: Octanol/water partition coefficient. The format is physicochemical. The procedure: A detailed scheme of chemical synthesis protocol is elaborated in the supplementary materials. To radiolabel the precursor with ^177Lu, 185-740 MBq of ^177LuCl3 was firstly diluted with 0.2 mL of 0.5 M NH4OAc (pH = 5.5) before incubating with EB-FAPI-Bn (50 μg dissolved in 10 μL dimethyl sulfoxide). The mixture was heated and thoroughly mixed for 30 min at 95 °C. Radiolabeling efficiency and radiochemical purity were tested using thin-layer chromatography (TLC) and high-performance liquid chromatography (HPLC). Radiolabeling of ^68Ga was performed by incubating with 50 μg precursor (pH = 4.5-5.0) at 95 ℃ for 10 min. The ^68Ga-labeled product was purified by C18 column extraction and the radiochemical purity was determined by HPLC. Stability of ^177Lu-EB-FAPI-B1, ^177Lu-EB-FAPI-B2, ^177Lu-EB-FAPI-B3 and ^177Lu-EB-FAPI-B4 (See Figure 1 for the structures) in PBS and saline were monitored up to 24 h using radio-HPLC. More information about radiochemistry, quality control and octanol/water partition coefficient can be found in supplemental information.

The nature of data set [5]: Biodistribution in healthy ICR mice. The data set is classed as in vivo. The procedure: (§4) In biodistribution study of normal mice, healthy ICR mice (18-20 g) were randomly divided into 6 groups (n = 4/group), injected with radiotracers (740 kBq in 0.1 mL saline) and sacrificed at 0.25, 1, 4, 8, 24 and 48 h p.i. Tissues and organs of interest were collected, wet weighed, and counted by a γ-counter. In addition, BALB/c nude mice bearing U87MG tumors were injected with radiotracers for SPECT imaging, and then, sacrificed at 96 h p.i., the major organs and tumors were collected and weighed. Radioactivity was detected using a γ-counter, and the results were calculated as percentage of injected dose per gram (%ID/g).

Data set [6] relates to U87MG tumor. Put plainly: Biodistribution in U87MG tumor-bearing mice at 96 h p.i. Also on record: species or system BALB/c nude mice. The following applies: ex vivo counting. The procedure:
as §3, §4

Data set [7] is described as follows: In vitro stability in PBS and saline (radio-HPLC/TLC). The data set is classed as physicochemical.
Data set [8] has as its system U87MG tumor. The experiment in a line: Radioligand therapy study and tumor histopathology in U87MG tumor-bearing mice. The data set is classed as in vivo, BALB/c nude mice. The procedure:
as §3, §2

The mark [9] stands for this setting: SPECT, value given with the increase from 24 h to 96 h p.i.

Entries after “also recorded” stand apart in the source; their conditions may differ.

For `N#C[C@@H]1CCCN1C(=O)CNC(=O)c1ccnc2ccc(OCCCN3CCN(C(=O)CN4CCN(CC(=O)O)CCN(CC(=O)O)CCN(CC(=O)O)CC4)CC3)cc12` [FAPI-02], the IC50 at FAP turned out to be 0.0109 µM.
In the case of `Cc1cc(-c2ccc(NC(=O)C(CCCCNC(=O)CCC(=O)N3CCN(CCCOc4ccc5nccc(C(=O)NCC(=O)N6CCC[C@H]6C#N)c5c4)CC3)NC(=O)CN3CCN(CC(=O)[O-])CCN(CC(=O)[O-])CCN(CC(=O)[O-])CC3)c(C)c2)ccc1N=Nc1ccc2c(S(=O)(=O)O)cc(S(=O)(=O)O)c(N)c2c1O.[68Ga+3]` (some centres unmarked) [^68Ga-EB-FAPI-B1], in the data set on U87MG tumor [1], the “T/M ratio compared with ^68Ga-FAPI-02” value is “higher T/M ratio” and the tumor uptake value was 3.5 ± 0.22 %ID/g.
`N#C[C@@H]1CCCN1C(=O)CNC(=O)c1ccnc2ccc(OCCCN3CCN(C(=O)CN4CCN(CC(=O)[O-])CCN(CC(=O)[O-])CCN(CC(=O)[O-])CC4)CC3)cc12.[68Ga+3]` [^68Ga-FAPI-02, reference compound]: the tumor uptake value in the data set on U87MG tumor [1] turned out to be 0.85 ± 0.21 %ID/g. For the same molecule, the “tumor uptake in the presence of the blocking agent EB-FAPI-B1” value in the data set with U87MG tumor [1] (unlabeled EB-FAPI-B1 as competitor) is on record as “decreased more than half”.
Take `Cc1cc(-c2ccc(NC(=O)C(CCCCNC(=O)CCC(=O)N3CCN(CCCOc4ccc5nccc(C(=O)NCC(=O)N6CCC[C@H]6C#N)c5c4)CC3)NC(=O)CN3CCN(CC(=O)[O-])CCN(CC(=O)[O-])CCN(CC(=O)[O-])CC3)c(C)c2)ccc1N=Nc1ccc2c(S(=O)(=O)O)cc(S(=O)(=O)O)c(N)c2c1O.[177Lu+3]` (some centres unmarked) [^177Lu-EB-FAPI-B1]: the “cellular uptake with blocking by unlabeled inhibitor” value in the data set on U87MG cells (blocking group) was found to be 2.25 ± 0.14%. Further, the highest cellular uptake with U87MG cells (incubation for 24 h) came to 9.97 ± 0.42%. Also, the body weight change entry in [2] (all treatment groups (30, 18.5, 7.4 MBq)) is reported as “slight body weight loss”. The “H&E staining of major organs (safety evaluation)” value in [2] (heart, liver, spleen, lung, kidneys after treatment) was “negligible side effect; also recorded: no distinct tissue damage”. For the same molecule, in the data set with U87MG tumor [3] (4 h p.i.), the “tumor uptake on SPECT images” value is “obvious tumor uptake was observed”. The “tumor-to-muscle ratio (T/M)” value in the data set on U87MG tumor [3] (SPECT, 24 h p.i.) was found to be 12.29 ± 0.85. The “tumor-to-muscle ratio (T/M), peak” value in the data set on U87MG tumor [3] (SPECT, 72 h p.i.) was 18.67 ± 3.75. In the data set with U87MG tumor [3] (SPECT, 96 h p.i.), the “tumor-to-muscle ratio (T/M)” value is 14.15 ± 0.13. Moreover, in the data set on U87MG tumor [3] (setting [9]), the “tumor-to-heart ratio (T/H)” value is given as 14.28 ± 2.46, the “tumor-to-kidney ratio (T/K)” value stood at 2.35 ± 0.61 and the “tumor-to-liver ratio (T/L)” value was determined as 3.73 ± 1.21. Further, the “Octanol/water partition coefficient (Log P)” value in data set [4] is -1.90 ± 0.12. The blood uptake in [5] (4 h p.i.) was 21.93 ± 2.13 %ID/g. Further, in data set [5] (8 h p.i.), the “kidney uptake (highest value)” value was determined as 16.38 ± 2.98 %ID/g. Moreover, the kidney uptake in data set [5] (48 h p.i.) is given as 8.13 ± 1.36 %ID/g. In the data set with U87MG tumor [6], this molecule gave a tumor uptake of 12.42 ± 1.54 %ID/g. Moreover, the “time stable in PBS (pH 7.4) and saline” value in data set [7] (PBS (pH 7.4) and saline) was “at least 24 h”. In addition, in [7] (PBS and saline, at 24 h and 48 h), the “radiochemistry purity after incubation” value is on record as “over 95%”. The “TUNEL staining of excised tumor” value in the data set on U87MG tumor [8] (18.5 MBq group versus saline group) is given as “remarkably more cell apoptosis”. Further, the relative tumor size result in the data set on U87MG tumor [8] (single dose of 30, 18.5 or 7.4 MBq (all three doses), day 0 to day 22) is “no more than 5”. Moreover, in the data set with U87MG tumor [8] (single dose of 30 MBq, 18.5 MBq or 7.4 MBq), the “tumor growth compared to the saline group” value is recorded as “noteworthy tumor growth inhibitions; also recorded: noteworthy tumor growth delay”. Also, the “H&E staining of excised tumor” value in the data set on U87MG tumor [8] (treatment groups versus saline group) is recorded as “large necrotic areas”.
Turning to `N#C[C@@H]1CCCN1C(=O)CNC(=O)c1ccnc2ccc(OCCCN3CCN(C(=O)CN4CCN(CC(=O)[O-])CCN(CC(=O)[O-])CCN(CC(=O)[O-])CC4)CC3)cc12.[177Lu+3]` [^177Lu-FAPI-02, reference compound], in [5] (4 h p.i.), the “blood accumulation relative to ^177Lu-EB-FAPI-B1” value is reported as “about 1%” and the blood uptake is given as 0.23 ± 0.06 %ID/g.
